Source: patent US6620424B1, “Process for producing glycolytic metabolism regulators” (Suntory Limited, priority 1998, dated 2003)

What was measured:
[1] = animal studies and clinical trials; cited from earlier work
Male SD rats [2] = assay: Evaluation of the suppressive effect on blood glucose elevation in rats (glucose challenge); assay type: in vivo, rat
Procedure: Male SD rats (weighing 300 to 400 g), operated on for blood sampling cannulation into the femoral artery, were used. After an overnight fast, itaconic acid (500 mg/kg) was orally administered. Thirty minutes later, glucose (4 g/kg) was ingested, and changes in blood glucose were observed. In the control group, purified water, free of itaconic acid, was orally administered in the same volume. Experiments were conducted in groups of 4 rats each, and the results were indicated as mean values±standard deviations. The test for a significant difference was performed by the analysis of variance of data, followed by Student t-test. Differences were taken as significant when p values were less than 0.05 (*p<0.05, **p<0.01).

[3] = tested on: streptozotocin-induced diabetes rats (male Wistar rats); assay: Evaluation of suppressive effect on blood glucose elevation in streptozotocin-induced diabetes rats; assay type: in vivo, rat
Excerpt: Streptozotocin is an antibiotic derived from Streptomyces achromogenes, one of […]. Its action of inducing insulin-dependent diabetes mellitus was reported for the first time in 1963 by Rakieten et al. (Rakieten N, Rakieten M L, Nadkarni M V, Cancer Chemother Rep 29:91-98, 1963). Since then, it has been used most commonly as a substance for inducing diabetes experimentally. The main mechanism of its diabetogenic action is ascribed to the destruction of P cells of the pancreas, thereby suppressing insulin secretion. In male Wistar rats (7-week-old), a solution of streptozotocin in 0.05 M citric acid-0.145 […] NaCl (pH 4.5) was administered into the caudal vein (50 mg/kg). The animals were individually reared, commencing immediately after administration of streptozotocin. After a lapse of 48 hours, the animals with blood glucose levels of 300 mg/dl or more were divided into a control group and an itaconic acid group (7 or 8 animals per group), and study was initiated. A rearing feed was given to the control group, and a rearing feed containing 1.38% of itaconic acid was given to the itaconic acid group, ad. lib. together with drinking water, and the animals were reared for 3 weeks.
During the 3-week rearing period, blood glucose, body weight, feed intake, and water intake were measured twice or 3 times weekly. Rats are nocturnal animals, and feeding mostly takes place at night. However, since their blood glucose fluctuates greatly depending on the elapsed time after eating, each measurement of blood glucose was made between 9:30 and 10:00 in the morning. Blood hemoglobin Alc was measured on the day after administration of streptozotocin and on the 19th day after start of the study. Hemoglobin Alc is hemoglobin having glucose attached thereto non-enzymatically, and is expressed as a percentage (%) of total hemoglobin. In humans, hemoglobin Alc is known to serve as an indicator of the mean value of blood glucose during the period from 1 to 3 months previously until blood sampling. In rats, the life of an erythrocyte is about half of that in humans, and hemoglobin Alc has been reported to reflect the mean value of blood glucose since 2 to 3 weeks previously.
The experiments were conducted in groups of 7 or 8 rats each, and the results were indicated as mean values±standard deviations. The blood glucose was expressed as changes in individual animals compared with the value found at the start of the study (grouping). The test for a significant difference was performed by the analysis of variance of data, followed by Student t-test. The level of significance was set at 0.05.

[4] = biological target: T1, rat liver type F6P2kinase (Rattus norvegicus, UniProt P07953); assay: Inhibition by itaconic acid of F6P2kinase activity catalyzing synthesis of F26BP; assay type: biochemical; conditions: 0.5 mM itaconic acid; 0.4 mM F6P, 2 mM ATP, 30° C.; read-out: inhibitory activity on F6P2kinase
T1 construct: made in house; host or cells: Escherichia coli
Procedure: The gene for rat liver type F6P2kinase was incorporated into Escherichia coli and expressed. From the E. coli cells, rat liver type F6P2kinase was purified (K. Kitamura et al., J. Biol. Chem., Vol. 264, 9799-9806, 1989). The rat liver type F6P2kinase (1.25 μg) was reacted at 30° C. in a reaction solution containing 100 mM Tris-HCl (pH 7.5), 0.1 mM EDTA, 10 mM MgCl2, 2 mM ATP, 0.4 mM F6P, and 0 to 1.5 mM itaconic acid. After lapses of 2, 4 and 6 minutes, 10 μl of the reaction mixture was transferred into a test tube containing 90 μl of 50 mM NaOH, and heated for 1 minute at 90° C. to terminate the reaction. The amount of the resulting F26BP was measured by a change in absorbance due to oxidation of NADH upon subsequent addition of glycolytic pathway enzymes. That is, 10 μl of the reaction mixture after termination of the reaction was added to 1 ml of a reaction solution containing 50 mM HEPES (pH 7.3), 0.2 mM EDTA, 5 mM MgCl2, 1 mM F6P, 1 mM PPi, 15 mU PPi-F6P phosphotransferase, 0.15 mM NADH, 1 U aldolase, 1 U glycerol-3-phosphate dehydrogenase, and 10 U triose-phosphate isomerase. The amount of F26BP was measured by a decrease in the absorbance at 340 nm (Van Schaftingen et al., Eur. J. Biochem., Vol. 129, 191-195, 1982). The activity that converts the substrate F6P to 1 μmole F26BP over 1 minute at 30° C. is defined as 1 U. The results are shown in FIG. 1.

Male SD rats [5] = assay: Evaluation of preventive effect on obesity in rats (3 weeks, itaconic acid in drinking water); assay type: in vivo, rat
Procedure: Male SD rats (8-week-old) were individually reared, commencing immediately after arrival. After a week of acclimatization, the animals were divided into a control group and an itaconic acid group (8 animals per group), and reared for 3 weeks, with feed and drinking water of the itaconic acid concentration shown in [Table 1] being given ad lib.
During the 3-week rearing period, the body weight, the feed intake, and the water intake were measured daily or every other day. On the final day, the animal was placed on a 17-hour fast, the blood was sampled, and the plasma was analyzed for blood glucose, hepatic function, and lipid-related parameters. Furthermore, the weight of the livers, kidneys, fat around the kidneys, and fat around the intestines was measured. The experiments were conducted in groups of 8 rats each, and the results were indicated as mean values±standard deviations. The test for a significant difference was performed by the analysis of variance of data, followed by Student t-test. The level of significance was set at 0.05.
The plasma collected at completion of the experiments was measured for various biological parameters. […] The experiments were conducted in groups of 8 rats each, and the results were indicated as mean values±standard deviations. The test for a significant difference was performed by the analysis of variance of data, followed by Student t-test. The level of significance was set at 0.05.

[6] = at completion of 3 weeks, FIG. 5
[7] = at completion of 3 weeks, p<0.05, FIG. 5
[8] = plasma after 3 weeks, 17-hour fast, mean ± SD, n=8
[9] = plasma after 3 weeks, 17-hour fast, mean ± SD, n=8, P < 0.05 vs control

T1 sequence (P07953 whole entry): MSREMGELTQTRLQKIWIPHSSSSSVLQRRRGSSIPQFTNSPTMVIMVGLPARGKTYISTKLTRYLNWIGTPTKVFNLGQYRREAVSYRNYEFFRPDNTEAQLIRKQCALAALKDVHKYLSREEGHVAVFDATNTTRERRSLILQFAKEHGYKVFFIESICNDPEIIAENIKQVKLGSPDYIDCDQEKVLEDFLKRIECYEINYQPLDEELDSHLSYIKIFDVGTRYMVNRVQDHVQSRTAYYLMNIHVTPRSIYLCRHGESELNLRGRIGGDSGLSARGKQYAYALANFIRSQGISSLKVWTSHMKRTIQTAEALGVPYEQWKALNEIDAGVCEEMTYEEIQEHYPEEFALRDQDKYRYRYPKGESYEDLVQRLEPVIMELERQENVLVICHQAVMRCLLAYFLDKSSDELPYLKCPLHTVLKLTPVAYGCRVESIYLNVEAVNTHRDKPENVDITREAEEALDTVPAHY

OCC(CO)N[C@H]1C[C@](O)(CO)[C@@H](O)[C@H](O)[C@H]1O [voglibose]
rapid increases (peaks) in postprandial blood glucose [1]: suppressing rapid increases (peaks) in postprandial blood glucose

C=C(CC(=O)O)C(=O)O [itaconic acid]
initial rapid increase in blood glucose after glucose challenge (Male SD rats [2]; itaconic acid 500 mg/kg orally 30 min before glucose 4 g/kg, 30 minutes after challenge, FIG. 6): significantly curbed | blood glucose late after glucose challenge (Male SD rats [2]; itaconic acid 500 mg/kg orally, after 180 minutes and 240 minutes, versus control group): significantly high | rise in blood hemoglobin Alc ([3]; Day 19, compared with the control group, FIG. 11): significant curbing of the rise | body weight ([3]; feed containing 1.38% itaconic acid, 3 weeks, FIG. 8): not different between the groups | rise in blood glucose (change from start of study) ([3]; feed containing 1.38% itaconic acid, 3 weeks, from Day 1 onwards, p<0.05 on Days 5 and 15, FIG. 7): suppression of the rise in blood glucose was observed | feed intake ([3]; from about Day 5 onwards, compared with the control group, FIG. 9): decreases in feed intake were observed | inhibition at 500 µM [4]: ~30% | feed intake (Male SD rats [5]; 3-week period, compared with the control group, FIG. 3): decreases in the feed intake were observed | weight of the kidneys per 100 g of body weight (Male SD rats [5]; [6]): not different between the groups | weight of the livers per 100 g of body weight (Male SD rats [5]; [6]): not different between the groups | weight of fat around the intestines per 100 g of body weight (Male SD rats [5]; [7]): significantly decreased | weight of fat around the kidneys per 100 g of body weight (Male SD rats [5]; [7]): significantly decreased | weight gain (Male SD rats [5]; from Day 9 onwards, p<0.05 against the control group, FIG. 2): significant suppression of weight gain | ALP (Male SD rats [5]; [8]): 0.3 ± 0.1 IU/l | Free cholesterol (Male SD rats [5]; [8]): 12.2 ± 2.0 mg/dL | GOT (Male SD rats [5]; [8]): 65.0 ± 12.0 IU/l | GPT (Male SD rats [5]; [8]): 13.0 ± 2.5 IU/l | LDH (Male SD rats [5]; [8]): 276 ± 82 IU/l | Total bilirubin (Male SD rats [5]; [8]): 0.19 ± 0.02 mg/dL | Total cholesterol (Male SD rats [5]; [8]): 46.3 ± 7.1 mg/dL | Triglycerides (Male SD rats [5]; plasma after 3 weeks, 17-hour fast, mean ± SD, n=8, P < 0.01 vs control): 20.9 ± 2.8 mg/dL | Blood glucose (Male SD rats [5]; [9]): 149 ± 19 mg/dL | Free fatty acids (Male SD rats [5]; [9]): 199 ± 75 mg/dL
